In publication PMC9573605, “Exploring Nitric Oxide (NO)-Releasing Celecoxib Derivatives as Modulators of Radioresponse in Pheochromocytoma Cells” (Molecules, 2022):

Key:
purified ovine COX-1 = biological target: T1, purified ovine COX-1 (Ovis aries, UniProt P05979); assay: COX Fluorescent Inhibitor Screening Assay, COX-1; type: biochemical
T1 construct: purchased Cayman Chemical 700100
T1 sequence (P05979 25-600): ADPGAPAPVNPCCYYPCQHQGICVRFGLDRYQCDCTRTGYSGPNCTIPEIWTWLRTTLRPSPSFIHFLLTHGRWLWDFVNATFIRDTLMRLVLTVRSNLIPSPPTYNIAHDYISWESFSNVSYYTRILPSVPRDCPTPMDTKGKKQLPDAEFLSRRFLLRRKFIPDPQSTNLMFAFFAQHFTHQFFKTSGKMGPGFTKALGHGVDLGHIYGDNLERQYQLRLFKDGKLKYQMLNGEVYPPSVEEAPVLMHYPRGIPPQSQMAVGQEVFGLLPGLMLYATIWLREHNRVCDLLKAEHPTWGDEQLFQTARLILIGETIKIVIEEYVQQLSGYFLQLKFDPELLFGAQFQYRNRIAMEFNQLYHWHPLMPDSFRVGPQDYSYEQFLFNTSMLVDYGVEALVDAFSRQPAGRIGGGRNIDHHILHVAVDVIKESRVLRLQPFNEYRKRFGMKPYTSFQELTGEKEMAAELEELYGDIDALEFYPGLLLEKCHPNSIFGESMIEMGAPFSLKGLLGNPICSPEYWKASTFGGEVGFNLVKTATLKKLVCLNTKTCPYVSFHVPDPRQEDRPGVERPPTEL
Protocol: (§1) COX inhibition (Table 1) was evaluated in vitro using purified ovine COX-1 and recombinant human COX-2 enzyme in a commercially available “COX Fluorescent Inhibitor Screening Assay KIT” (item no. 700100, Cayman Chemical, Ann Arbor, MI, USA). Celecoxib served as a reference and inhibition data concerning 4a, 4e, 5a and 5e were previously reported by us and is herein discussed for comparison.
(§2) COX inhibition activity against ovine COX-1 and human COX-2 was determined using the fluorescence-based COX assay “COX Fluorescent Inhibitor Screening Assay Kit” (catalog number 700100; Cayman Chemical, Ann Arbor, MI, USA) according to the manufacturer’s instructions. Compounds 6a–d were screened at a concentration of 100 µM, all others were assayed in a concentration range of 0.1 nM to 100 μM in duplicate.

recombinant human COX-2 = biological target: T2, recombinant human COX-2 (Homo sapiens, UniProt P35354); assay: COX Fluorescent Inhibitor Screening Assay, COX-2; type: biochemical; conditions: for SI: COX-1 vs COX-2 selectivity index; for IC50: human COX-2
T2 construct: purchased Cayman Chemical 700100
T2 sequence (P35354 18-604): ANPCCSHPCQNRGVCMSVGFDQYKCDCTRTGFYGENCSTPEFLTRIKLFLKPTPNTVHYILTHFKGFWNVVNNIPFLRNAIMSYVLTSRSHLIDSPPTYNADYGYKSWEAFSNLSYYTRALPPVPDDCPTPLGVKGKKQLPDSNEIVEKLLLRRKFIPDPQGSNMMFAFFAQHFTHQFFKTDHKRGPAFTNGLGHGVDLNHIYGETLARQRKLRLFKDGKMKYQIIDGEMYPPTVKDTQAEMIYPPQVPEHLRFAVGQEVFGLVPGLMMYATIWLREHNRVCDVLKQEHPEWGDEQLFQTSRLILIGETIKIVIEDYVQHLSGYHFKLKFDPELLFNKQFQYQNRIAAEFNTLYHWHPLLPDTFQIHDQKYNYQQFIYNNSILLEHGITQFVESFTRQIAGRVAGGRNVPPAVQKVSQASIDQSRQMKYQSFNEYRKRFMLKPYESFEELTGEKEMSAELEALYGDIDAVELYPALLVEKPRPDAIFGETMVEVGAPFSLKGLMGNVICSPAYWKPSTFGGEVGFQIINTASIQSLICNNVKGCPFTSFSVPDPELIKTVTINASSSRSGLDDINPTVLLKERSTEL
Protocol: as §1, §2

[1] = system: MPC-HIF2α tumor spheroids; assay: Spheroid regrowth assay with external X-ray irradiation; type: cell-based, mouse; conditions: X-ray 15 Gy; 10 µM compound added 2 h post irradiation; controls 83%
Protocol: As a first pilot study, growth responses of MPC-HIF2α spheroids were investigated after two different radiation treatments such as single-dose external beam irradiation (X-ray) and incubation with [^177Lu]LuCl3, respectively. NO-COXIBs were tested at 10 µM for additional effects on radiation treatments against a vehicle-treated control (w/o) and celecoxib (Ce).
The log2-fold change in spheroid diameter is given as a standardized parameter for spheroid growth, which is positive for growing, near zero for stagnating and negative for shrinking spheroids. Furthermore, regrowth probabilities are given as a parameter to compare how many of the overall studied spheroids in one group recovered within 14 days. Radioprotective effects occurred when compounds were added 2 h before irradiation. In this setup, all compounds accelerated the increase in spheroid size during the regrowth phase compared to controls (Figure 5A, upper panel). Regrowth probabilities of 67–100% under NO-COXIB treatment remained however similar to controls (83%). Radiosensitizing effects occurred when compounds were added 2 h post irradiation. In this setup, all compounds decelerated the increase in spheroid size during the regrowth phase compared to controls.
Genetically modified mouse pheochromocytoma (MPC) cells expressing a codon-optimized Epas1 gene (encoding HIF2α) were cultured as three-dimensional tumor spheroids as published elsewhere. External X-ray beam radiation treatment and [^177Lu]LuCl3 radionuclide treatment was performed as reported previously with some modifications. In brief, spheroids were irradiated with a 200 kV photon beam using a Maxishot X-ray system equipped with a Y.TU/320-D03 tube (YXLON, Hamburg, Germany), growth of spheroids (n = 6) with diameters between 300−400 µm was measured in response to one fixed radiation dose, 15 Gy for X-ray treatment, and 0.25 MBq/mL of [^177Lu]LuCl3 for radionuclide treatment corresponding to a cumulative dose of approximately 2 Gy delivered for 6 days. The applied radiation doses were selected based on the half-maximal spheroid control doses (SCD50) as previously determined for MPC HIF2α spheroids by us. Spheroids were considered as regrown at 100 µm increase in diameter compared to treatment start or at a diameter growth rate of 15 µm per day. Results are reported as spheroid regrowth probability (%).
Figure 5 Effects of NO-COXIBs on radiation treatments of MPC-HIF2α tumor spheroids. (A) Growth responses to X-ray treatment with a radiation dose of 15 Gy in combination with 10 µM NO-COXIBs added to the medium at indicated time points before or after irradiation. (B) Growth responses to [^177Lu]LuCl3 treatment with an initial activity concentration of 0.25 MBq/mL in combination with NO-COXIBs; log2 fold changes in diameter indicate the number of diameter doublings compared to treatment start; 14-day regrowth probability indicates the fraction of spheroids able to regrow within 14 days after treatment start; (black arrows) time point or duration of radiation treatment; (w/o) vehicle controls are shown as black lines; (Ce) celecoxib.

[2] = Lipophilicity logD7.4 by HPLC method; type: physicochemical; conditions: HPLC retention on ODP-50 4B column (Shodex Asahipak), phosphate buffer pH 7.4
Protocol: The lipophilicity of all synthesized compounds was determined as logD7.4, HPLC value by an HPLC method originally described by Donovan and Pescatore.
The logD7.4HPLC value was determined as previously reported by us utilizing an HPLC method originally described by Donovan and Pescatore.

[3] = screened at a concentration of 100 µM

Compound | IC50 (purified ovine COX-1; 0.1 nM to 100 µM in duplicate) [µM] | SI (recombinant human COX-2) | IC50 (recombinant human COX-2; 0.1 nM to 100 µM in duplicate) [µM] | 14-day regrowth probability [1] | chromatographic logD [2] | IC50 (purified ovine COX-1; [3]) [µM] | IC50 (recombinant human COX-2; [3]) [µM]
COc1ccc(-c2cc(CO[N+](=O)[O-])nn2-c2ccc(S(N)(=O)=O)cc2)cc1 [5f, [5-(4-Methoxyphenyl)-1-(4-sulfamoylphenyl)-1H-pyrazol-3-yl]methyl nitrate] | > 100 | >84 | 1.18 | 17% | 3.32 | – | –
Cc1ccc(-c2c(Cl)c(CO[N+](=O)[O-])nn2-c2ccc(S(C)(=O)=O)cc2)cc1 [5c, {4-Chloro-1-[4-(methylsulfonyl)phenyl]-5-(p-tolyl)-1H-pyrazol-3-yl}methyl nitrate] | > 100 | >47 | 2.12 | 17% | 4.04 | – | –
COc1ccc(-c2c(Cl)c(CO[N+](=O)[O-])nn2-c2ccc(S(C)(=O)=O)cc2)cc1 [5d, {4-Chloro-5-(4-methoxyphenyl)-1-[4-(methylsulfonyl)phenyl]-1H-pyrazol-3-yl}methyl nitrate] | > 100 | >92 | 1.08 | 17% | 4.02 | – | –
CCC(=O)NS(=O)(=O)c1ccc(-n2nc(CO[N+](=O)[O-])c(Cl)c2-c2ccc(C)cc2)cc1 [6a, {4-Chloro-1-[4-(N-propionylsulfamoyl)phenyl]-5-(p-tolyl)-1H-pyrazol-3-yl}methyl nitrate] | – | – | – | 33–40% | 2.27 | > 100 | > 100
CCC(=O)NS(=O)(=O)c1ccc(-n2nc(CO[N+](=O)[O-])cc2-c2ccc(OC)cc2)cc1 [6d, {5-(4-Methoxyphenyl)-1-[4-(N-propionylsulfamoyl)phenyl]-1H-pyrazol-3-yl}methyl nitrate] | – | – | – | 33–40% | 1.55 | > 100 | > 100
CCC(=O)NS(=O)(=O)c1ccc(-n2nc(CO[N+](=O)[O-])cc2-c2ccc(C)cc2)cc1 [6c, {1-[4-(N-Propionylsulfamoyl)phenyl]-5-(p-tolyl)-1H-pyrazol-3-yl}methyl nitrate] | – | – | – | 33–40% | 1.82 | > 100 | > 100
CCC(=O)NS(=O)(=O)c1ccc(-n2nc(CO[N+](=O)[O-])c(Cl)c2-c2ccc(OC)cc2)cc1 [6b, {4-Chloro-5-(4-methoxyphenyl)-1-[4-(N-propionylsulfamoyl)phenyl]-1H-pyrazol-3-yl}methyl nitrate] | – | – | – | 0% | 2.1 | ~100 | > 100
